In patent US12214036B2, “Combination therapy comprising AXL/MER and PD-1/PD-L1 inhibitors” (Incyte Corporation, priority 2020, dated 2025):

Legend:
TYRO3 = molecular target: T1, TYRO3 (Homo sapiens, UniProt Q06418); experiment: TR-FRET kinase assay, TYRO3; assay type: biochemical
T1 construct: recombinant phosphorylated forms of the kinase domains for AXL, MER and TYRO3; purchased Life Technologies PR7480A
T1 sequence (Q06418 518-790 limits assumed): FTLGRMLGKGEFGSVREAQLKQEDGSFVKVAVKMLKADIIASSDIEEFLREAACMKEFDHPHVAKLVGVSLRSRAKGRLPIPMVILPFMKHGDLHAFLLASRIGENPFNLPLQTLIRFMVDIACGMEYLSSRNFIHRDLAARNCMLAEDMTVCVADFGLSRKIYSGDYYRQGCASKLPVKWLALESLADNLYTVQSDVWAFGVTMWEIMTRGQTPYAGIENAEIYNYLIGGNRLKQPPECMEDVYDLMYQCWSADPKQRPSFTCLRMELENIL
Procedure: The biochemical potency of Compound 1 to inhibit the enzymatic activity of TAM family members was investigated by TR-FRET assays using recombinant phosphorylated forms of the kinase domains for AXL, MER and TYRO3.
Phospho-AXL (pAXL), cMER and Tyro3 kinase activities were measured by time-resolved fluorescence energy transfer (TR-FRET) assays. Autophosphorylation of AXL was carried out before the kinase assay by incubating the recombinant AXL protein (ThermoFisher Scientific; #PV4275) in buffer containing 50 mM Tris, pH 7.5, 0.2 mg/mL AXL, 5 mM ATP, 20 mM MgCl2 and 2 mM dithiothreitol (DTT) at room temperature for 1 hour. The kinase assay buffer contained 50 mM HEPES, pH 7.5, 10 mM MgCl2, 1 mM EGTA, 0.01% NP-40 and 2 mM DTT. Enzyme solutions of 0.69 nM phospho-AXL, or 0.088 nM cMER (Carna Biosciences, Kobe, Japan; #08-108) or 0.137 nM TYRO3 (Life Technologies, PR7480A) were prepared in assay buffer. […] The plate was incubated for 30 minutes at room temperature, and homogenous time resolved fluorescence (HTRF) signal was measured on a PheraStar FS plate reader (BMG Labtech, Ortenberg, Germany). Percent inhibition was calculated for each concentration, and half maximal inhibitory concentration (IC50) value was generated from curve fitting with GraphPad Prism software (San Diego, Calif.).

4T1 tumor = experiment: Tumor models in immunodeficient mice; assay type: in vivo, athymic nude mice; settings: immunodeficient mice bearing the same tumors, FIG. 7C
From the text: MBT-2 cells were obtained from the Japanese Collection of Research Bioresources Cell Bank and were maintained in DMEM supplemented with 10% FBS. MC38 cells were obtained from the NCI. 4T1 cells were obtained from ATCC and maintained in RPMI media supplemented with 10% FBS. For MBT-2 experiments, 5×10^5 MBT-2 cells were inoculated subcutaneously into the right hind flank of 6- to 8-week-old C3H mice or athymic nude mice (Charles River Laboratories, Wilmington, Mass.). For MC38 studies, 12-week old female C57BL/6 mice were inoculated with brei of MC38 tumors (in-vivo passage 6) into the right hind flank. For 4T1 studies, 7.5×10^5 4 T1 cells were inoculated subcutaneously into the right hind flank of 6- to 8-week-old female BALB/c mice or athymic nude mice (Charles River Laboratories). Mice were randomized by tumor volume with n=10-12 per group. […] Mice were monitored for tumor growth and overt tolerability over the course of the experiment. […] Tumor volume was calculated using the formula (L×W^2)/2, where L and W refer to the length and width dimensions, respectively. Tumor growth inhibition (TGI) was calculated using the formula (1−(VT/VC))×100, where VT is the tumor volume of the treatment group on the last day of treatment, and VC is the tumor volume of the control group on the last day of treatment. […]

SMILES: CC(C)C(=O)N1CCC(c2cc(-c3ccc(NC(=O)c4cn(C(C)C)c(=O)n(-c5ccccn5)c4=O)cc3)c3c(N)ncnn23)CC1 [Compound 1, N-(4-(4-Amino-7-(1-isobutyrylpiperidin-4-yl)pyrrolo[1,2-f][1,2,4]triazin-5-yl)phenyl)-1-isopropyl-2,4-dioxo-3-(pyridin-2-yl)-1,2,3,4-tetrahydropyrimidine-5-carboxamide]
- IC50 (TYRO3; average from multiple lots, n=25, read-out: IC50 against TYRO3): 101 ± 27 nM
- selectivity over TYRO3 (TYRO3; biochemical): approximately 30 fold
- antitumor activity in immunodeficient mice (4T1 tumor): no activity
